# In US20210008075A1, “PEDIATRIC DOSING FOR TREATMENT OF CANCER WITH AN EZH2 INHIBITOR” (Epizyme, Inc., priority 2015, published 2021):
# “Also recorded” adds a separate entry of the source. Where two headings read alike, the source gives them in different places.
# What was measured:
# Medulloblastoma cells = experiment: Medulloblastoma cell growth, total cells per milliliter counted; assay type: cell-based; conditions: versus DMSO control, counted each day for 10 days; tazemetostat 0.5, 2 and 6 μM
# Source text: The total cells per milliliter of culture were counted each day for 10 days.
# [1] = test system: primary medulloblastoma cells; conditions: for primary medulloblastoma cell growth ex vivo: slice culture treated for 4 days
# Description: A slice culture of medulloblastoma was freshly isolated from a subject.
# A patient having medulloblastoma underwent surgery to remove a slice of tumor tissue for testing. The medulloblastoma slice was cultured ex vivo on tissue supporting inserts (FIG. 28A). […] Following the treatment period, the cells of the slice culture were treated with BrdU for 4 hours prior to disaggregation and sorting by flow cytometry.
# cellular H3K27Me3 = experiment: Cellular histone methylation in G401 and RD cells; assay type: cell-based
# Description: FIGS. 10A-10C are a series of graphs showing effects of Compound A on cellular global histone methylation and cell viability.
# (FIG. 12A) Cell lysates were analyzed by immunoblot with antibodies specific to SMARCB1, EZH2 and Actin (loading control). […] Cells were incubated with Compound A for 4 days, and acid-extracted histones were analyzed by immunoblot.
# ATRT = ATRT in vivo, percent survival
# [2] = Oral bioavailability (general statement); conditions: in vivo
# [3] = test system: G401 xenografts (malignant rhabdoid tumor model); experiment: G401 xenograft tumor regression; assay type: in vivo, SCID mice; conditions: twice daily (BID) administration at the indicated doses; listed as Compound A
# Description: Data represent the mean values±SEM (n=8). Compound administration was stopped on day 28. (FIG. 5C) EZH2 target inhibition in G401 xenograft tumor tissue collected from a parallel cohort of mice on day 21. […] Horizontal lines represent group mean values. BLLQ=below lower limit of quantification. (FIG. 5D, FIG. 5E) Immunohistochemical staining of tumor histone methylation of tumor samples from the vehicle treated (FIG. 5D) and Compound A treated (FIG. 5E) (at 125 mg/kg) mice.
# Data are presented as mean values±SEM (n=16 until day 21, n=8 from day 22 to 60). […] (FIG. 15C) Tumor weights of 8 mice euthanized on day 21. ****p<0.0001, Fisher's exact test. (FIG. 15D) Plasma was collected 5 min before and 3 h after dosing of Compound A on day 21, and compound levels were measured by LC-MS/MS. Animals were euthanized, and tumors were collected 3 h after dosing on day 21. Tumor homogenates were generated and subjected to LC-MS/MS analysis to determine Compound A concentrations. Note that tumor compound levels could not be determined from all animals especially in the higher dose groups because the xenografts were too small on day 21. Dots represent values for the individual animals; horizontal lines represent group mean values.
# Compound administration was stopped on day 28 and tumors were allowed to re-grow until they reached 2000 mm^3 (data shown as mean values±SEM, n=8). […]
# SMARCB1 regulated genes = experiment: Gene expression by qPCR and cell morphology; assay type: cell-based; conditions: 1 μM; 2, 4 and 7 days (G401, RD); 14 days (G402)
# Description: (FIG. 14A) Basal expression of SMARCB1 regulated genes in G401 SMARCB1-deleted cells, relative to RD control cells (measured by qPCR, n=2). (FIGS. 14B-14L) G401 and RD cells were incubated with either DMSO or 1 μM Compound A for 2, 4 and 7 days. Gene expression was determined by qPCR (n=2) and is expressed relative to the DMSO control of each time point. FIGS. 14B-14K correspond to genes GLI1, PTCh1, DOCK4, CD133, PTPRK, BIN1, CDKN1A, CDKN2A, EZH2, and MYC, respectively. (FIG. 14L) G402 cells were incubated with either DMSO (left panel) or 1 μM Compound A (right panel) for 14 days. Cells were split and re-plated to the original seeding density on day 7.
# [4] = Phase 1 clinical trial, observed steady-state PK in adults; conditions: for CL/F Observed: adults, steady-state; for AUC(0-t) / Cmax: human, in vivo, po
# [5] = test system: SMARCB1-deleted MRT cells (G401); experiment: Cell cycle analysis (flow cytometry) and apoptosis (TUNEL assay); assay type: cell-based; conditions: 1 μM, up to 14 days
# Description: Cell cycle analysis (by flow cytometry) and determination of apoptosis (by TUNEL assay) in RD (FIG. 13A) or G401 cells (FIG. 13B) during incubation with either vehicle or 1 μM Compound A for up to 14 days. […] Data are represented as mean values±SEM (n=2). The DMSO control values shown are the average±SEM from each time point. Cells were split and re-plated on days 4, 7 and 11 at the original seeding density.
# [6] = test system: G401 SNF5 mutant cell line; experiment: CellTiter-Glo Luminescent Cell Viability Assay after 7 day pretreatment; assay type: cell-based; conditions: pretreated for 7 days, replated on day 0
# Description: FIGS. 4A-4D are four graphs showing that G401 SNF5 mutant cell line is sensitive to Compound A in vitro. Wild type cell line SJCRH30 (FIG. 4A) and RD (FIG. 4C) and SNF5 mutant cell line G401 (FIG. 4B) and A204 (FIG. 4D) were pretreated for 7 days with indicated concentrations of Compound A and replated on day 0. Cell viability was determined by CellTiter-Glo® Luminescent Cell Viability Assay.
# [7] = PBPK model (Gastroplus) prediction of adult steady-state PK; conditions: adults, 100-1600 mg BID
# BT-16 ATRT cell line = experiment: Surviving fraction after 2Gy radiation; assay type: cell-based
# Source text: FIG. 25A is a pair of graphs showing a surviving fraction of untreated or DZNEP-treated ATRT cells (from a BT-16 ATRT cell line) exposed to 2Gy radiation.
# [8] = test system: atypical teratoid rhabdoid tumors (ATRTs); experiment: ATRT cell self-renewal; assay type: cell-based; conditions: up to 7 or 10 days post-treatment
# Source text: FIG. 24A is a series of photographs showing control or EZH2 inhibitor-treated (DNZep-treated) atypical teratoid rhabdoid tumors (ATRTs) at 1, 3, 5, and 7 days post-treatment.
# FIG. 24D is a series of photographs showing control or EZH2 inhibitor-treated (DNZep-treated) atypical teratoid rhabdoid tumors (ATRTs) at 3, 5, 8 and 10 days post-treatment.
# UPN737 ATRT cell line = experiment: Surviving fraction after 2Gy radiation; assay type: cell-based
# Source text: FIG. 25B is a pair of graphs showing a surviving fraction of untreated or DZNEP-treated ATRT cells (from a UPN737 ATRT cell line, “737”) exposed to 2Gy radiation.
# [9] = test system: SNF5 mutant cell lines A204, G401 and G402; experiment: Response of SNF5 mutant versus wild type cell lines; assay type: cell-based
# [10] = test system: LNCAP prostate cancer cells; experiment: LNCAP cell growth inhibition in vitro; assay type: cell-based
# [11] = test system: G401 SNF mutant cell line; experiment: Soft agar growth, 7 days; assay type: cell-based; conditions: after 7 days
# Source text: FIGS. 3A-3D are a series of bar graphs showing that G401 SNF mutant cell line is responding to Compound D after 7 days in soft agar compared to wild type cells RD.
# SCLC line NCI-H841 = experiment: Morphology of SCLC line by microscopy; assay type: cell-based; conditions: 4.1E-02 uM or 3.3 uM
# [12] = test system: ATRX mutant SCLC lines NCI-H446, SW1271 and NCI-H841; experiment: Response of ATRX mutant SCLC lines; assay type: cell-based
# Source text: FIGS. 8A-8C are three graphs establishing that ATRX mutant SCLC lines NCI-H446 (FIG. 8A), SW1271 (FIG. 8B) and NCI-H841 (FIG. 8C) are responding to Compound D.
# [13] = 500 nM or 2 μM for 4 days, versus untreated control
smiles,measurement,setting,value
"CCCc1cc(C)[nH]c(=O)c1CNC(=O)c1cc(-c2ccc(N3CCN(C(C)C)CC3)nc2)cc2c1cnn2C(C)C [UNC 1999, reference compound]",medulloblastoma cell growth (total cells per milliliter),Medulloblastoma cells,decrease medulloblastoma cell growth
CCN(c1cc(-c2ccc(CN3CCOCC3)cc2)cc(C(=O)NCc2c(C)cc(C)[nH]c2=O)c1C)C1CCOCC1 [tazemetostat],medulloblastoma cell growth (total cells per milliliter),Medulloblastoma cells,significant decrease; also recorded: decrease medulloblastoma cell growth
same,proportion of cells in G0/G1 stage,[1]; [13],increased proportion
same,proportion of cells in G2/M stage,[1]; [13],decreased proportion
same,primary medulloblastoma cell growth ex vivo,[1],inhibits proliferation/growth of medulloblastoma cells
same,primary medulloblastoma cell growth ex vivo,[1]; listed as Tazemetostat,decreases primary medulloblastoma cell growth ex vivo
same,cellular H3K27Me3 levels,cellular H3K27Me3,Concentration-dependent inhibition
same,specificity for inhibition of cellular histone methylation,"cellular H3K27Me3; 4 days, immunoblot",Selective inhibition of cellular H3K27 methylation
same,ATRT in vivo (percent survival versus vehicle),ATRT,decreases ATRT in vivo
same,oral bioavailability,[2],orally bioavailable
same,tumor response in G401 xenografts,[3],durable regressions; also recorded: Tumor regressions; also recorded: eradicates SMARCB1-deleted MRT xenografts
same,expression of SMARCB1 regulated genes and cell morphology,SMARCB1 regulated genes,induces changes in expression of SMARCB1 regulated genes and cell morphology
same,CL/F Observed,[4]; 100 mg BID p.o. (n = 6),309 L/h
same,CL/F Observed,[4]; 200 mg BID p.o. (n = 3),198 L/h
same,CL/F Observed,[4]; 400 mg BID p.o. (n = 3),264 L/h
same,CL/F Observed,[4]; 800 mg BID p.o. (n = 6),152 L/h
same,CL/F Observed,[4]; 1600 mg BID p.o. (n = 6),180 L/h
same,AUC(0-t),[4]; 100 mg,0.348 µg·h/mL
same,Cmax,[4]; 100 mg,0.099 µg/mL
same,AUC(0-t),[4]; 200 mg,1.01 µg·h/mL
same,Cmax,[4]; 200 mg,0.237 µg/mL
same,AUC(0-t),[4]; 400 mg,1.51 µg·h/mL
same,Cmax,[4]; 400 mg,0.313 µg/mL
same,AUC(0-t),[4]; 800 mg,4.63 µg·h/mL
same,Cmax,[4]; 800 mg,0.818 µg/mL
same,AUC(0-t),[4]; 1600 mg,7.88 µg·h/mL
same,Cmax,[4]; 1600 mg,1.48 µg/mL
same,G1 arrest,[5],G1 arrest was observed as of day 7
same,apoptosis,[5]; TUNEL,apoptosis was induced as of day 11
same,sensitivity of cell viability in vitro,[6],sensitive
same,deviation of predicted mean steady-state AUC0-t from observed,[7],≤ 30%
same,deviation of predicted oral clearance (CL/F) from observed,[7],≤ 30%
"CC[C@H](C)n1cc(C)c2c(C(=O)NCc3c(C)cc(C)[nH]c3=O)cc(-c3ccc(N4CCNCC4)nc3)cc21 [GSK-126, reference compound]",medulloblastoma cell growth (total cells per milliliter),Medulloblastoma cells,decrease medulloblastoma cell growth
Nc1nccc2c1ncn2C1C=C(CO)C(O)C1O (centres unmarked) [DNZep],radio-sensitization (surviving fraction),BT-16 ATRT cell line,radio-sensitizes ATRT
same,ATRT cell self-renewal,[8],suppresses ATRT cell self-renewal
same,radio-sensitization (surviving fraction),UPN737 ATRT cell line,radio-sensitizes ATRT
CCN(c1cc(-c2ccc(CN3CCOCC3)cc2)cc(C(=O)NCc2c(C)cc(C)[nH]c2=O)c1C)[C@H]1CC[C@H](N(C)C)CC1 [Compound D],response of SNF5 mutant cell lines compared to wild type cell lines RD and SJCRH30,[9],selectively respond
same,cell growth inhibition,[10],dose-dependent cell growth inhibition
same,response in soft agar compared to wild type cells RD,[11],responding
same,cell morphology,SCLC line NCI-H841,changes morphology
same,response of ATRX mutant SCLC lines,[12],responding
